From the supplement of paper PMC12137928
Counter-ions that a name gives are not always drawn.

Test system: HCT116
Conditions: 72 h
Outline: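 Luminescence was read with CellTiter-Glo in HCT116 cells seeded at 250 per well in 1536-well plates. Signals were scaled between vehicle at 0% and positive control at -100%, then pattern-corrected. IC50 and maximal efficacy were obtained by fitting a four-parameter Hill equation.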

Structure (SMILES) | IC50 cell viability (ICRF193 0 nM) | IC50 cell viability (ICRF193 200 nM)
Oc1ccc2c3c1O[C@H]1[C@@H](O)CC[C@@]4(O)[C@@H](C2)N(CC2CCC2)CC[C@]314 [Nalbuphine hydrochloride] | > 45.8 µM | > 45.8 µM
CN(C(=O)/C=C/c1ccoc1)[C@@H]1CC[C@@]2(O)[C@H]3Cc4ccc(O)c5c4[C@@]2(CCN3CC2CC2)[C@H]1O5 [Nalfurafine hydrochloride] | > 45.8 µM | > 45.8 µM
C=C1CC[C@@]2(O)[C@H]3Cc4ccc(O)c5c4[C@@]2(CCN3CC2CC2)[C@H]1O5 [Nalmefene] | > 45.8 µM | > 45.8 µM
C=CCN1CC[C@]23c4c5ccc(O)c4O[C@H]2[C@@H](OCCOCCOCCOCCOCCOCCOCCOC)CC[C@@]3(O)[C@H]1C5 [Naloxegol (oxalate)] | > 45.8 µM | > 45.8 µM
C=CCN1CC[C@]23c4c5ccc(O)c4O[C@H]2C(=O)CC[C@@]3(O)[C@H]1C5 [Naloxone] | > 45.8 µM | > 45.8 µM
CC(=O)N[C@@H](CCC(N)=O)C(=O)O [Nalpha-Acetyl-L-glutamine] | > 45.8 µM | > 45.8 µM
O=C1CC[C@@]2(O)[C@H]3Cc4ccc(O)c5c4[C@@]2(CCN3CC2CC2)[C@H]1O5 [Naltrexone hydrochloride] | > 45.8 µM | > 45.8 µM
CCCCCCCCCC(=O)O[C@H]1CC[C@H]2[C@@H]3CCC4=CC(=O)CC[C@@H]4[C@H]3CC[C@]12C [Nandrolone decanoate] | > 45.8 µM | > 45.8 µM
C[C@]12CC[C@H]3[C@@H](CCC4=CC(=O)CC[C@@H]43)[C@@H]1CC[C@@H]2OC(=O)CCc1ccccc1 [Nandrolone phenpropionate] | > 45.8 µM | > 45.8 µM
COc1ccc2cc([C@H](C)C(=O)O)ccc2c1 [Naproxen sodium] | > 45.8 µM | > 45.8 µM
N.N.O=C([O-])C[O-].[Pt+2] [Nedaplatin] | > 45.8 µM | > 45.8 µM
CCCc1c2oc(C(=O)O)cc(=O)c2cc2c(=O)cc(C(=O)O)n(CC)c12 [Nedocromil] | > 45.8 µM | > 45.8 µM
COc1nc(N)nc2c1ncn2[C@@H]1O[C@H](CO)[C@@H](O)[C@@H]1O [Nelarabine] | > 45.8 µM | > 45.8 µM
CN(C)C(=O)Oc1cccc([N+](C)(C)C)c1 [Neostigmine bromide] | > 45.8 µM | > 45.8 µM
NC(=O)Cc1cccc(C(=O)c2ccccc2)c1N [Nepafenac] | > 45.8 µM | > 45.8 µM
CCN[C@@H]1C[C@H](N)[C@@H](O[C@H]2OC(CN)=CC[C@H]2N)[C@H](O)[C@H]1O[C@H]1OC[C@](C)(O)[C@H](NC)[C@H]1O [Netilmicin sulfate] | > 45.8 µM | > 45.8 µM
CCN(CC)CCOC(=O)c1cccnc1 [Nicametate citrate] | > 45.8 µM | > 45.8 µM
O=C(OCC(COC(=O)c1cccnc1)(COC(=O)c1cccnc1)COC(=O)c1cccnc1)c1cccnc1 [Niceritrol] | > 45.8 µM | > 45.8 µM
O=C(OCC1(COC(=O)c2cccnc2)CCCC(COC(=O)c2cccnc2)(COC(=O)c2cccnc2)C1O)c1cccnc1 [Nicomolol] | > 45.8 µM | > 45.8 µM
O=C(NCCO[N+](=O)[O-])c1cccnc1 [Nicorandil] | > 45.8 µM | > 45.8 µM

Structure (SMILES) | IC50 cell viability (ICRF193 0 nM) | IC50 cell viability (ICRF193 200 nM)
Cn1c(NCCN(CCO)CCCc2ccc([N+](=O)[O-])cc2)cc(=O)n(C)c1=O [Nifekalant] | > 45.8 µM | > 45.8 µM
O=[N+]([O-])c1ccc(/C=N/O)o1 [Nifuroxime] | > 45.8 µM | > 45.8 µM
CS(=O)(=O)Nc1ccc([N+](=O)[O-])cc1Oc1ccccc1 [Nimesulide] | > 45.8 µM | > 45.8 µM
Cc1ncc(CNC(=O)N(CCCl)N=O)c(N)n1 [Nimustine] | > 45.8 µM | > 45.8 µM
O=[N+]([O-])c1ccc([As](=O)(O)O)cc1 [Nitarsone] | > 45.8 µM | > 45.8 µM
O=[N+]([O-])c1ccccc1 [Nitrobenzene] | > 45.8 µM | > 45.8 µM
NC(=O)N/N=C/c1ccc([N+](=O)[O-])o1 [Nitrofurazone] | > 45.8 µM | > 45.8 µM
NC(=O)c1cc([N+](=O)[O-])cc([N+](=O)[O-])c1 [Nitromide] | > 45.8 µM | > 45.8 µM
CNC(=C[N+](=O)[O-])NCCSCc1csc(CN(C)C)n1 [Nizatidine] | > 45.8 µM | > 45.8 µM
CCN(CC)Cc1nccn1-c1ccc([N+](=O)[O-])cc1C(=O)c1ccccc1Cl [Nizofenone] | > 45.8 µM | > 45.8 µM
CC(=O)O[C@]1(C(C)=O)CC[C@H]2[C@@H]3C=C(C)C4=CC(=O)CC[C@@H]4[C@H]3CC[C@@]21C [Nomegestrol acetate] | > 45.8 µM | > 45.8 µM
O=C(O)CCCCCCCC(=O)O [Nonanedioic acid] | > 45.8 µM | > 45.8 µM
CCCCCCCCC(=O)NCc1ccc(O)c(OC)c1 [Nonivamide] | > 45.8 µM | > 45.8 µM
NC[C@H](O)c1ccc(O)c(O)c1 [Noradrenaline bitartrate monohydrate] | > 45.8 µM | > 45.8 µM
C#C[C@]1(O)CC[C@H]2[C@@H]3CCC4=CC(=O)CC[C@@H]4[C@H]3CC[C@@]21C [Norethindrone] | > 45.8 µM | > 45.8 µM
C#C[C@]1(O)CC[C@H]2[C@@H]3CCC4=CC(=NO)CC[C@@H]4[C@H]3CC[C@@]21CC [Norgestimate metabolite Norelgestromin] | > 45.8 µM | > 45.8 µM
C#CC1(O)CC[C@H]2[C@@H]3CCC4=CC(=O)CC[C@@H]4[C@H]3CC[C@@]21CC (stereo partly specified) [Norgestrel] | > 45.8 µM | > 45.8 µM
CCC(=O)C(CCN(C)C)(c1ccccc1)c1ccccc1 [Normethadone] | > 45.8 µM | > 45.8 µM
NCC(O)c1cccc(O)c1 (stereo unspecified) [Norphenylephrine hydrochloride] | > 45.8 µM | > 45.8 µM

Other lines, results leading:

IC50 cell viability (ICRF193 0 nM) | IC50 cell viability (ICRF193 200 nM) | Structure (SMILES)
> 45.8 µM | > 45.8 µM | CCN(CC)CCOC(=O)C(Cc1cccc2ccccc12)CC1CCCO1 (stereo unspecified) [Nafronyl oxalate]
> 45.8 µM | > 45.8 µM | CCn1cc(C(=O)O)c(=O)c2ccc(C)nc21 [Nalidixic acid]
> 45.8 µM | > 45.8 µM | c1ccc2c(CC3=NCCN3)cccc2c1 [Naphazoline hydrochloride]
> 45.8 µM | > 45.8 µM | CNS(=O)(=O)CCc1ccc2[nH]cc(C3CCN(C)CC3)c2c1 [Naratriptan hydrochloride]
> 45.8 µM | > 45.8 µM | CC(C)[C@H]1CC[C@H](C(=O)N[C@H](Cc2ccccc2)C(=O)O)CC1 [Nateglinide]
> 45.8 µM | > 45.8 µM | CN1CCOC(c2ccccc2)c2ccccc2C1 (stereo unspecified) [Nefopam hydrochloride]
> 45.8 µM | > 45.8 µM | COc1ccnc2c1CCCCC2[S+]([O-])c1nc2ccccc2[nH]1 (stereo unspecified) [Nepaprazole]
> 45.8 µM | > 45.8 µM | CCCCc1cc2c(=O)c(C(=O)OC)c[nH]c2cc1OCc1ccccc1 [Nequinate]
> 45.8 µM | > 45.8 µM | CCOc1cc2ncc(C#N)c(Nc3ccc(OCc4ccccn4)c(Cl)c3)c2cc1NC(=O)/C=C/CN(C)C [Neratinib]
> 45.8 µM | > 45.8 µM | Cc1ccccc1-c1cc(N2CCN(C)CC2)ncc1N(C)C(=O)C(C)(C)c1cc(C(F)(F)F)cc(C(F)(F)F)c1 [Netupitant]
> 45.8 µM | > 45.8 µM | Cc1ccnc2c1NC(=O)c1cccnc1N2C1CC1 [Nevirapine]
> 45.8 µM | > 45.8 µM | O=C(O)c1cccnc1 [Niacin]
> 45.8 µM | > 45.8 µM | CCCCOCCOC(=O)c1cccnc1 [Nicoboxil]
> 45.8 µM | > 45.8 µM | Cc1c(NC(=O)c2cccnc2)c(=O)n(-c2ccccc2)n1C [Nifenazone]
> 45.8 µM | > 45.8 µM | Cc1cn(-c2cc(NC(=O)c3ccc(C)c(Nc4nccc(-c5cccnc5)n4)c3)cc(C(F)(F)F)c2)cn1 [Nilotinib]
> 45.8 µM | > 45.8 µM | CC1(C)NC(=O)N(c2ccc([N+](=O)[O-])c(C(F)(F)F)c2)C1=O [Nilutamide]
> 45.8 µM | > 45.8 µM | COC(=O)C1=C(C#N)NC(C)=C(C(=O)OC(C)C)C1c1cccc([N+](=O)[O-])c1 (stereo unspecified) [Nilvadipine]
> 45.8 µM | > 45.8 µM | COCCOC(=O)C1=C(C)NC(C)=C(C(=O)OC(C)C)C1c1cccc([N+](=O)[O-])c1 (stereo unspecified) [Nimodipine]
> 45.8 µM | > 45.8 µM | O=C1CCCC(=O)C1C(=O)c1ccc(C(F)(F)F)cc1[N+](=O)[O-] [Nitisinone]
> 45.8 µM | > 45.8 µM | CCOC(=O)C1=C(C)NC(C)=C(C(=O)OC)C1c1cccc([N+](=O)[O-])c1 (stereo unspecified) [Nitrendipine]
> 45.8 µM | > 45.8 µM | O=C1CN(/N=C/c2ccc([N+](=O)[O-])o2)C(=O)N1 [Nitrofurantoin]
> 45.8 µM | > 45.8 µM | CCn1cc(C(=O)O)c(=O)c2cc(F)c(N3CCNCC3)cc21 [Norfloxacin]
> 45.8 µM | > 45.8 µM | COc1ccc2c(c1OC)C(=O)O[C@@H]2[C@H]1c2c(cc3c(c2OC)OCO3)CCN1C [Noscapine]
> 45.8 µM | > 45.8 µM | CO[C@@H]1[C@@H](OC(N)=O)[C@@H](O)[C@H](Oc2ccc3c(O)c(NC(=O)c4ccc(O)c(CC=C(C)C)c4)c(=O)oc3c2C)OC1(C)C [Novobiocin sodium]
